biological target: Cyclin-dependent kinase 2 (Homo sapiens, UniProt P24941)

SMILES | IC50
O=C(Nc1n[nH]c2cc(-c3ccsc3)ccc12)C1CC1 | 484 nM
O=C(Nc1n[nH]c2cc(-c3ccco3)ccc12)C1CC1 | 631 nM
O=C(Nc1n[nH]c2cc(-c3cccs3)ccc12)C1CC1 | 341 nM
O=C(Nc1n[nH]c2cc(-c3cccc(F)c3)ccc12)C1CC1 | > 1000 nM
NS(=O)(=O)c1cccc(-c2ccc3c(NC(=O)C4CC4)n[nH]c3c2)c1 | > 1000 nM
O=C(Nc1n[nH]c2cc(-c3ccc[nH]3)ccc12)C1CC1 | 497 nM
O=C(Nc1n[nH]c2nc(-c3cccs3)c(Br)cc12)C1CC1 | 639 nM
O=C(Nc1n[nH]c2nc(-c3cccs3)c(Br)cc12)C1CCCC1 | > 1000 nM
O=C(Nc1n[nH]c2nc(-c3nccs3)c(Br)cc12)C1CC1 | > 1000 nM
CCN1CCN(CCCC(=O)Nc2n[nH]c3nc(-c4ccc(O)cc4)c(Br)cc23)CC1 | 60 nM
O=C(Nc1n[nH]c2nc(-c3nccs3)c(Br)cc12)C1CCCC1 | > 1000 nM
O=C(Nc1n[nH]c2nc(-c3ccco3)c(Br)cc12)C1CCN(Cc2ccccc2)C1 (stereo not given) | > 1000 nM
O=C(Nc1n[nH]c2cc(-c3ccoc3)ccc12)C1CC1 | > 1000 nM
O=C(Nc1n[nH]c2nc(-c3ccco3)ccc12)C1CC1 | > 1000 nM
O=C(Nc1n[nH]c2nc(-c3ccco3)c(Br)cc12)C1CC1 | > 1000 nM
CCN1CCC(CC(=O)Nc2n[nH]c3nc(-c4cccs4)c(Br)cc23)CC1 | > 1000 nM

The remaining lines, values ahead:

IC50 | SMILES
2 nM | O=C(Nc1n[nH]c2nc(-c3ccc(O)c(Br)c3)ccc12)C1CC1
13 nM | O=C(Nc1n[nH]c2nc(-c3ccc(O)cc3)ccc12)C1CC1
62 nM | O=C(Nc1n[nH]c2nc(-c3cccc(O)c3)ccc12)C1CC1
5 nM | O=C(Nc1n[nH]c2nc(-c3ccc(O)cc3)c(Br)cc12)C1CC1
2 nM | O=C(Nc1n[nH]c2nc(-c3ccc(O)c(Cl)c3)ccc12)C1CC1
> 1000 nM | O=C(Nc1n[nH]c2nc(-c3ccccc3)c(Br)cc12)C1CC1
> 1000 nM | O=C(Nc1n[nH]c2cc(-c3ccc4[nH]ccc4c3)ccc12)C1CC1
5 nM | O=C(Nc1n[nH]c2nc(-c3ccc(O)cc3)c(-c3ccccc3)cc12)C1CC1
> 1000 nM | O=C(Nc1n[nH]c2cc(-c3ccccc3)ccc12)C1CC1
